From patent publication US10202368B2, “CXCR7 receptor modulators” (IDORSIA PHARMACEUTICALS LTD, priority 2014, dated 2019) come the findings set out here.

CXCR7, sequence (P25106 whole entry): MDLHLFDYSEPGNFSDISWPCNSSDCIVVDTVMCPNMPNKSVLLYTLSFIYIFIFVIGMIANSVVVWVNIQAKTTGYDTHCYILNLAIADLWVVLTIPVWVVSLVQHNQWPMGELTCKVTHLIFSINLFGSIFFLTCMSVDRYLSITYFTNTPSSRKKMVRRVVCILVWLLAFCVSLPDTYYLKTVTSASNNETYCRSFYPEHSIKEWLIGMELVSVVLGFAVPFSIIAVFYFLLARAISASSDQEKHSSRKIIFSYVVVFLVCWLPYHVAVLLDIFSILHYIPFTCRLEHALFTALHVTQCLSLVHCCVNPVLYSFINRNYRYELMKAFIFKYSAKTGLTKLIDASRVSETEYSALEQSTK
CXCR7, sequence (P32121 whole entry partner): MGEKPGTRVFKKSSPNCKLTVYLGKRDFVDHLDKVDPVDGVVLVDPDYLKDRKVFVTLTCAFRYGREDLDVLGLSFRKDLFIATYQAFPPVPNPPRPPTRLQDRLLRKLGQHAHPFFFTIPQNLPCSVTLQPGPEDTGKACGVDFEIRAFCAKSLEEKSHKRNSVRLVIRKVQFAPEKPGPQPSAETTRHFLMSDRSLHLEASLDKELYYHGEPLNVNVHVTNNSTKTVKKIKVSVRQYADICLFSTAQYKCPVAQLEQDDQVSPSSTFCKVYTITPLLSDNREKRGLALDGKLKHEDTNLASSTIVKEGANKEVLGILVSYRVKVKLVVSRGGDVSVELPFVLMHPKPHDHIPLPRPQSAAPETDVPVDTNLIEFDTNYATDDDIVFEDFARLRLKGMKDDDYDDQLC

The target of this assay is CXCR7 (Homo sapiens (Human), UniProt P25106). In words: PathHunter CHO-K1 CXCR7 β-arrestin assay (agonistic activity). In kind it is cell-based. The conditions noted are these: β-arrestin recruitment in PathHunter CHO-K1 CXCR7 β-arrestin cells, 90 minutes at 37° C., geometric mean values. Here is the method:
The CXCI12 receptor and CXCR7 agonistic activities of the compounds of formula (I) are determined in accordance with the following experimental method.
The assay is using the PathHunter™ CHO-K1 CXCR7 β-arrestin cell line from DiscoverX. The system is based on the Enzyme Fragment Complementation Technology. Two complementing fragments of the β-galactosidase enzyme are expressed within stably transfected cells. The larger portion of β-gal, termed EA for Enzyme Acceptor, is fused to the C-terminus of b-arrestin 2. The smaller fragment, termed ProLink™ tag, is fused to CXCR7 at the C-terminus. Upon activation, b-arrestin is recruited which forces the interaction of ProLink and EA, allowing complementation of the two fragments of b-gal and the formation of a functional enzyme which is capable of hydrolysing the substrate and generating a chemiluminescent signal.
CHO-K1 CXCR7 β-arrestin cells are detached from culture dishes with a cell dissociation buffer (Invitrogen, #13151-014) and collected in growing medium (F12 HAMS 90% (v/v)/FCS 10% (v/v), Penicillin/streptomycin 1% (v/v)). 5000 cells per well (in 20 μl) are seeded in a 384 well plate (white-walled, clear bottom; BD Falcon #353274). The plate is incubated at 37° C./5% CO2 for 24 hours. Medium is then replaced by 20 μl OPTIMEM (Invitrogen #31985) for 3 to 4 hours. Test compounds are dissolved at 10 mM in DMSO and serially diluted in DMSO to 200× of the final concentration for dose response curves. Compounds are then diluted 1:33.3 in HBSS1X. 5 μl/well of HBSS1X/20 mM HEPES/0.2% BSA are added to the assay plate followed by addition of 5 μl/well of diluted compounds. CXCL12 (Peprotech #300-28A) may be used as a reference agonist. The plate is incubated for 90 minutes at 37° C. 12 μl of detection reagent (Path Hunter Detection Kit, DiscoveRx, #93-0001) is transferred to the assay plate and to the plate is incubated for 1 hour at room temperature. Luminescent signal is read in a microplate reader (FLUOstar Optima, bmg). The calculated EC50 values may fluctuate depending on the daily cellular assay performance. Fluctuations of this kind are known to those skilled in the art. Average EC50 values from several measurements are given as geometric mean values.
In general terms: Activated receptors often draw arrestin, which recruitment assays turn into a signal.
Broadly, the EC50 is the concentration at which the effect is half-maximal. A higher EC50 goes with a need for much substance. For the molecule `CC(=O)N1CCc2cccc(OCC(=O)N(CCN(C)C)Cc3ccccc3C(F)(F)F)c2CC1` [Example 25, 2-(3-Acetyl-2,3,4,5-tetrahydro-1H-benzo[d]azepin-6-yloxy)-N-(2-dimethylamino-ethyl)-N-(2-trifluoromethyl-benzyl)-acetamide], the EC50 worked out at 3 nM.
With `CN(C)CCN(Cc1ccccc1C(F)(F)F)C(=O)CNc1cccc2c1CCN(C(=O)C(F)(F)F)CC2` [Example 26, N-(2-Dimethylamino-ethyl)-2-[3-(2,2,2-trifluoro-acetyl)-2,3,4,5-tetrahydro-1H-benzo[d]azepin-6-ylamino]-N-(2-trifluoromethyl-benzyl)-acetamide], the EC50 was 4 nM.
The result for `CN(C)CCN(Cc1ccccc1C(F)(F)F)C(=O)CNc1cccc2c1CCN(CC1CC1)CC2` [Example 27, 2-(3-Cyclopropylmethyl-2,3,4,5-tetrahydro-1H-benzo[d]azepin-6-ylamino)-N-(2-dimethylamino-ethyl)-N-(2-trifluoromethyl-benzyl)-acetamide] reads 2 nM; that for `CN(C)CCN(Cc1ccccc1C(F)(F)F)C(=O)CNc1cccc2c1CCCN(CC1CC1)C2` [Example 28, 2-(2-Cyclopropylmethyl-2,3,4,5-tetrahydro-1H-benzo[c]azepin-6-ylamino)-N-(2-dimethylamino-ethyl)-N-(2-trifluoromethyl-benzyl)-acetamide], 3 nM.
For `CC(C)(C)NCCN(Cc1ccccc1C(F)(F)F)C(=O)CNc1cccc2c1C(=O)N(CC1CC1)CCO2` [Example 29, N-(2-tert-Butylamino-ethyl)-2-(4-cyclopropylmethyl-5-oxo-2,3,4,5-tetrahydro-benzo[f][1,4]oxazepin-6-ylamino)-N-(2-trifluoromethyl-benzyl)-acetamide] the value was 3 nM.
For `CN(C)CCN(Cc1cccc(Cl)c1Cl)C(=O)CNc1cccc2c1C(=O)N(CC1CC1)CCO2` [Example 30, 2-(4-Cyclopropylmethyl-5-oxo-2,3,4,5-tetrahydro-benzo[f][1,4]oxazepin-6-ylamino)-N-(2,3-dichloro-benzyl)-N-(2-dimethylamino-ethyl)-acetamide] the value was 7.8 nM; for `CN(C)CCN(Cc1c(Cl)cccc1Cl)C(=O)CNc1cccc2c1C(=O)N(CC1CC1)CCO2` [Example 31, 2-(4-Cyclopropylmethyl-5-oxo-2,3,4,5-tetrahydro-benzo[f][1,4]oxazepin-6-ylamino)-N-(2,6-dichloro-benzyl)-N-(2-dimethylamino-ethyl)-acetamide], 27 nM; for `CN(C)CCN(Cc1ccccc1Cl)C(=O)CNc1cccc2c1C(=O)N(CC1CC1)CCO2` [Example 32, N-(2-Chloro-benzyl)-2-(4-cyclopropylmethyl-5-oxo-2,3,4,5-tetrahydro-benzo[f][1,4]oxazepin-6-ylamino)-N-(2-dimethylamino-ethyl)-acetamide], 15 nM.
Regarding `Cc1cccc(CN(CCN(C)C)C(=O)CNc2cccc3c2C(=O)N(CC2CC2)CCO3)n1` [Example 33, 2-(4-Cyclopropylmethyl-5-oxo-2,3,4,5-tetrahydro-benzo[f][1,4]oxazepin-6-ylamino)-N-(2-dimethylamino-ethyl)-N-(6-methyl-pyridin-2-ylmethyl)-acetamide], a half-maximal effect (EC50) was put at 24 nM.
For `CC(C)NCCN(Cc1ccccc1C(F)(F)F)C(=O)CNc1cccc2c1C(=O)N(CC1CC1)CCO2` [Example 34, 2-(4-Cyclopropylmethyl-5-oxo-2,3,4,5-tetrahydro-benzo[f][1,4]oxazepin-6-ylamino)-N-(2-isopropylamino-ethyl)-N-(2-trifluoromethyl-benzyl)-acetamide] the value was 5 nM; for `CC(C)N(CCN(Cc1ccccc1C(F)(F)F)C(=O)CNc1cccc2c1C(=O)N(CC1CC1)CCO2)C(=O)OC(C)(C)C` [Example 35, {2-[[2-(4-Cyclopropylmethyl-5-oxo-2,3,4,5-tetrahydro-benzo[f][1,4]oxazepin-6-ylamino)-acetyl]-(2-trifluoromethyl-benzyl)-amino]-ethyl}-isopropyl-carbamic acid tert-butyl ester], 420 nM.
For `CNCCN(Cc1ccccc1C(F)(F)F)C(=O)CNc1cccc2c1C(=O)N(CC1CC1)CCO2` [Example 36, 2-(4-Cyclopropylmethyl-5-oxo-2,3,4,5-tetrahydro-benzo[f][1,4]oxazepin-6-ylamino)-N-(2-methylamino-ethyl)-N-(2-trifluoromethyl-benzyl)-acetamide] the value was 12 nM; for `CN(CCN(Cc1ccccc1C(F)(F)F)C(=O)CNc1cccc2c1C(=O)N(CC1CC1)CCO2)C(=O)OC(C)(C)C` [Example 37, {2-[[2-(4-Cyclopropylmethyl-5-oxo-2,3,4,5-tetrahydro-benzo[f][1,4]oxazepin-6-ylamino)-acetyl]-(2-trifluoromethyl-benzyl)-amino]-ethyl}-methyl-carbamic acid tert-butyl ester], 410 nM.
For `CN(C)CCN(Cc1ccccc1C(F)(F)F)C(=O)CNc1cccc2c1C(=O)N(CC1CC1)CCO2` [Example 38, 2-(4-Cyclopropylmethyl-5-oxo-2,3,4,5-tetrahydro-benzo[f][1,4]oxazepin-6-ylamino)-N-(2-dimethylamino-ethyl)-N-(2-trifluoromethyl-benzyl)-acetamide] the value was 4 nM; for `CCN1CCOc2c(NCC(=O)N(CCN(C)C)Cc3ncccc3C)cccc2C1=O` [Example 39, N-(2-Dimethylamino-ethyl)-2-(4-ethyl-5-oxo-2,3,4,5-tetrahydro-benzo[f][1,4]oxazepin-9-ylamino)-N-(3-methyl-pyridin-2-ylmethyl)-acetamide], 400 nM; for `CCN1CCOc2c(NCC(=O)N(CCNC(C)(C)C)Cc3ccccc3C(F)(F)F)cccc2C1=O` [Example 40, N-(2-tert-Butylamino-ethyl)-2-(4-ethyl-5-oxo-2,3,4,5-tetrahydro-benzo[f][1,4]oxazepin-9-ylamino)-N-(2-trifluoromethyl-benzyl)-acetamide], 7 nM.
`CCN1CCOc2c(NCC(=O)N(CCN(C)C)Cc3ccccc3C(F)(F)F)cccc2C1=O` [Example 41, N-(2-Dimethylamino-ethyl)-2-(4-ethyl-5-oxo-2,3,4,5-tetrahydro-benzo[f][1,4]oxazepin-9-ylamino)-N-(2-trifluoromethyl-benzyl)-acetamide] yielded an EC50 of 22 nM.
The result for `CN(C)CCN(Cc1ccccc1C(F)(F)F)C(=O)CNc1cccc2c1N(C)CCN(CC1CC1)C2=O` [Example 42, 2-(4-Cyclopropylmethyl-1-methyl-5-oxo-2,3,4,5-tetrahydro-1H-benzo[e][1,4]diazepin-9-ylamino)-N-(2-dimethylamino-ethyl)-N-(2-trifluoromethyl-benzyl)-acetamide] reads 7 nM; that for `CN1CCN(CC2CC2)C(=O)c2cccc(NCC(=O)N(CCNC(C)(C)C)Cc3ccccc3C(F)(F)F)c21` [Example 43, N-(2-tert-Butylamino-ethyl)-2-(4-cyclopropylmethyl-1-methyl-5-oxo-2,3,4,5-tetrahydro-1H-benzo[e][1,4]diazepin-9-ylamino)-N-(2-trifluoromethyl-benzyl)-acetamide], 4 nM; that for `Cc1cccnc1CN(CCN(C)C)C(=O)CNc1cccc2c1N(C)CCN(CC1CC1)C2=O` [Example 44, 2-(4-Cyclopropylmethyl-1-methyl-5-oxo-2,3,4,5-tetrahydro-1H-benzo[e][1,4]diazepin-9-ylamino)-N-(2-dimethylamino-ethyl)-N-(3-methyl-pyridin-2-ylmethyl)-acetamide], 130 nM.
For `CN(C)CCN(Cc1ncccc1Cl)C(=O)CNc1cccc2c1N(C)CCN(CC1CC1)C2=O` [Example 45, N-(3-Chloro-pyridin-2-ylmethyl)-2-(4-cyclopropylmethyl-1-methyl-5-oxo-2,3,4,5-tetrahydro-1H-benzo[e][1,4]diazepin-9-ylamino)-N-(2-dimethylamino-ethyl)-acetamide] the value was 50 nM; for `CC(C)NCCN(Cc1ccccc1C(F)(F)F)C(=O)CNc1cccc2c1N(C)CCN(CC1CC1)C2=O` [Example 46, 2-(4-Cyclopropylmethyl-1-methyl-5-oxo-2,3,4,5-tetrahydro-1H-benzo[e][1,4]diazepin-9-ylamino)-N-(2-isopropylamino-ethyl)-N-(2-trifluoromethyl-benzyl)-acetamide], 5 nM.
The result for `CCN1CCN(CC)c2c(NCC(=O)N(CCN3CCOCC3)Cc3ncccc3C(F)(F)F)cccc2C1=O` [Example 47, 2-(1,4-Diethyl-5-oxo-2,3,4,5-tetrahydro-1H-benzo[e][1,4]diazepin-9-ylamino)-N-(2-morpholin-4-yl-ethyl)-N-(3-trifluoromethyl-pyridin-2-ylmethyl)-acetamide] reads 430 nM.
